Activity calls are given as the source filed them. The calls are words filed in the database; no cut-off is given here.
Legend:
[1] = system: Bacillus subtilis; experiment: Antibacterial activity against Bacillus subtilis at 60 ug/disk; type: functional; conditions: for zone of inhibition at 60 µg/disc: read-out: IZ
[2] = system: P388; experiment: Cytotoxicity against mouse P388 cells; type: functional, cell-based
[3] = system: Trichophyton mentagrophytes; experiment: Antifungal activity against Trichophyton mentagrophytes at 60 ug/disk; type: functional; conditions: for zone of inhibition at 60 µg/disc: read-out: IZ
[4] = system: Poliovirus 1; experiment: Antiviral activity against Human poliovirus 1 at 40 ug/well; type: functional, organism-based

SMILES | zone of inhibition at 60 µg/disc [1] [mm] | IC50 [2] [µg/mL] | zone of inhibition at 60 µg/disc [3] [mm] | Activity [1] | Activity [4] | Activity [3]
COc1cc([C@H]2[C@@H](O)N(C)C(=O)[C@]23CCCN3C)c(Br)cc1Br [AMATHASPIRAMIDE A] | 1 | > 12.5 | 1 |  |  | 
COc1cc([C@H]2[C@@H](O)N(C)C(=O)[C@]23CCC(=O)N3C)c(Br)cc1Br [AMATHASPIRAMIDE B] |  | > 12.5 |  | inactive | inactive | inactive
COc1cc([C@H]2[C@@H](O)N(C)C(=O)[C@]23CCCN3)c(Br)cc1Br [AMATHASPIRAMIDE C] |  | > 12.5 |  | inactive | inactive | inactive
COc1cc([C@H]2[C@@H](O)N(C)C(=O)[C@]23CCC=N3)c(Br)cc1Br [AMATHASPIRAMIDE E] | 1 | > 12.5 | 1 |  | Active | 

Reference: ChEMBL document CHEMBL1141842, “Amathaspiramides A-F, novel brominated alkaloids from the marine bryozoan amathia wilsoni” (J Nat Prod, 1999)
